Experimental data published in patent US20140243418A1, “RASAGILINE FOR PARKINSON'S DISEASE MODIFICATION” (Teva Pharmaceutical Industries, Ltd., priority 2008, published 2014).

Key:
Early Stage PD patients [1] = conditions: 1 mg only; end of the PC phase
Source text: III. Additional Efficacy Endpoints • 1. Number (%) of subjects who need additional anti-PD therapy • 2. Time to need of additional anti-PD therapy • 3. Change from baseline to LOV in placebo-controlled phase in Part I of revised UPDRS (version 4)

Early Stage PD patients [2] = conditions: rasagiline 1 mg and 2 mg; end of the PC phase
Source text: IV. Sub-Study • 1. Change from baseline to LOV in placebo-controlled phase in Parkinson Fatigue scale • 2. Change from baseline in Subject Reported Outcomes (US only) • 3. A blood sample for pharmacogenetic analysis will be collected from all subjects at baseline. If not performed at baseline, can be performed at any other visit. Participation in this sub-study is voluntary pending IRB/EC approval and subject's authorization on a separate informed consent form.

C#CCN[C@@H]1CCc2ccccc21 [rasagiline] was tested, and the “UPDRS Version 4 Part 1” value (Early Stage PD patients [1]) was “beneficial effect” and the “Parkinson Fatigue Scale” value (Early Stage PD patients [2]) was “beneficial effect”.
